Data published in patent publication US20250115597A1, “TYK2 INHIBITORS AND COMPOSITIONS AND METHODS THEREOF” (LYNK PHARMACEUTICALS CO. LTD., priority 2021, published 2025).
Like-named read-outs stand apart in the source and are kept apart here.

What was measured:
TYK2 = molecular target: T1, TYK2 (Homo sapiens, UniProt P29597); test: TYK2 kinase activity, microfluidic assay (Caliper EZ Reader II); format: biochemical; conditions: TYK2 1 nM, 1 mM ATP
T1 construct: purchased Carna Biosciences
Description: (§1) Testing for JAK1, JAK2 and TYK2 Kinase Activities
(§2) JAK activity was determined in the reaction buffer 50 mM HEPES, 0.01% Brij35, 10 mM MgCl2, 2 mM DTT by a microfluidic assay. The phosphorylation of a FAM labeled peptide substrate was monitored in the Caliper EZ Reader II (Perkin Elmer). The assay condition for each batch of enzyme (Carna Biosciences) was optimized to obtain 10% conversion rate of peptide substrate.
(§3) The test compounds were dissolved in DMSO to a stock concentration of 10 mM. Three-fold serially diluted compounds with top concentration of 5 μM were pre-incubated with JAK1, JAK2 or TYK2 for 10 min at ambient temperature. The final DMSO concentration of assay mixture was 1%. […] The reaction was stopped by adding 50 mM EDTA.
(§4) The percent inhibition was calculated by the following formula:
(§5) [formula] • wherein • Conversion %_max=the conversion rate in the positive well without addition of compound • Conversion %_sample=the conversion rate of test compounds • Conversion %_min=the conversion rate in the well without addition of enzyme
(§6) The dose-response (percent inhibition) curve was plotted and IC50 values were determined by GraphPad software.

[1] = molecular target: T2, Ba/F3-FL-TYK2-P760L cells (Homo sapiens, UniProt P29597, P760L, cells depend on it); test: Anti-proliferative assay, Ba/F3-FL-TYK2-P760L cells (Cell-Titer Glo); format: cell-based; conditions: 72 h, read-out: BaF3-FL-T2P760L IC50
T2 construct: BaF3-FL-T2P760L (nM)
In short: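 Compound exposure ran 72 h at 37 °C in 5% CO2 across nine 3-fold concentrations from a 20 μM top dose, added 24 h after seeding 2000 cells/well.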

[2] = Microsomal metabolic stability assay; format: in vitro ADME; conditions: pH 7.4, 0.5 mg/mL protein, 1 μM compound
In short: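 Parent loss was tracked by LC/MS/MS at 0, 5, 15, 30 and 45 min, with half-life derived from the ln(% remaining)–time slope. Incubation at 37 °C, pH 7.4 phosphate/EDTA buffer: 0.5 mg/mL microsomes, 1 μM compound, NADPH-regenerated (2 mM).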

JAK1 = molecular target: T3, JAK1 (Homo sapiens, UniProt P23458); test: JAK1 kinase activity, microfluidic assay (Caliper EZ Reader II); format: biochemical; conditions: JAK1 5 nM, 1 mM ATP
T3 construct: purchased Carna Biosciences
Description: as §1, §2, §3, §4, §5, §6

JAK2 = molecular target: T4, JAK2 (Homo sapiens, UniProt O60674); test: JAK2 kinase activity, microfluidic assay (Caliper EZ Reader II); format: biochemical; conditions: JAK2 0.125 nM, 1 mM ATP
T4 construct: purchased Carna Biosciences
Description: as §1, §2, §3, §4, §5, §6

TYK2-JH2 domain = molecular target: T5, TYK2-JH2 domain (Homo sapiens, UniProt P29597); test: Binding activity test for JH2 domain of TYK2 (Tb-antibody/tracer FRET)
T5 construct: IC50 on JH2 domain activity (nM)
In short: (§7)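 FRET read-out after 60 min at 25° C plus overnight at 4° C; tracer displacement detected via Tb-labelled antibody on the JH2 domain. Dose-response used 11 points at 3-fold dilution.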

Ba/F3-TEL-TYK2 cells = molecular target: T6, Ba/F3-TEL-TYK2 cells (Homo sapiens, UniProt P29597); test: Anti-proliferative assay, Ba/F3-TEL-TYK2 cells (Cell-Titer Glo); format: cell-based; conditions: 72 h, read-out: BaF3-TEL-TYK2 IC50
T6 construct: fused on or other part: Dimerization domain of TEL (ETV6) fused to the TYK2 kinase domain; P41212 (Transcription factor ETV6)
Description: Anti-Proliferative Assay Dimerization domain of Tel protein fused with JAK kinase domain was permanently transduced into Ba/F3 cells, whose proliferation is dependent on JAK activity in the absence of IL-3 induction. These engineered Ba/F3 cells (Ba/F3-FL-TYK2-[…], Ba/F3-TEL-TYK2 and Ba/F3-TEL-JAK2) were used to monitor JAK inhibitory activities of the compounds in the cellular. […] Cells were seeded at 2000/well of white flat bottom 96-well plates. The well containing medium only was used as background control. After 24 h growth, cells were treated with compounds. The test compounds were dissolved in DMSO to a stock concentration of 20 mM. 3-fold serially diluted compounds for 9 concentrations with top concentration of 20 μM was added into the each well. […] The cells continued to grow at 37° C. in 5% CO2 for 72 h after compound treatment. The viability was measured by cellular ATP determination using the Cell-Titer Glo luciferase reagent (Promega). The Luminescence value was recorded by a multi-label reader Envision (PerkinElmer).

[3] = Hepatocytes metabolic stability assay; format: in vitro ADME; conditions: cryopreserved hepatocytes, human hepatocytes, 1.0×10^6 cells/mL
In short: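 Cryopreserved hepatocytes (1.0×10^6 cells/mL final) were incubated with test compound at 1 μM at 37 °C and sampled at 0, 15, 30, 60 and 120 min, with acetonitrile quench and LC-MS/MS. k came from log-linear % remaining versus time, giving T1/2 and CLint.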

[4] = Plasma protein binding by equilibrium dialysis; format: in vitro ADME; conditions: human plasma, equilibrium dialysis 5 hours at 37° C.; read-out: % Bound (human) (converted)
Description: Plasma Protein Binding by Equilibrium Dialysis
Aliquots of test compound stock solution and warfarin stock solution were spiked into plasma to give the matrix solutions with theoretical concentrations of test compound at 0.2 and 2 μM or warfarin at 2 μM. Immediately transfer 50 μL of the spiked plasma solution suspension to a 96-well plate to act as T=0 control sample. Assemble the dialysis set up following the manufacturer's instructions. Load cells with 150 μL of plasma sample and dialyzed against equal volume of dialysis buffer (PBS). The assay is performed in duplicate. Cover the unit with gas permeable lid and incubate for 5 hours at 37° C. at 100 rpm in a constant temperature shaking box. At the end of incubation, remove lid and pipette 50 μL of post-dialysis samples from both buffer and plasma solution chambers into separated 96-well plate for analysis, respectively. Add 50 μL of plasma solution to the buffer samples, and an equal volume of PBS to the collected plasma solution samples. Shake the plate at 1000 rpm for 2 minutes and add 600 μL of 50% ACN/MeOH containing an appropriate internal standard (IS) to precipitate protein and release compound. Vortex at 1000 rpm for 10 minutes. Centrifuge for 10 minutes at 4000 rpm. Then transfer 75 μL of the supernatant to new 96-well plates for analysis. Add 150 μL of distilled water to each sample and mix for analysis by LC-MS/MS.
The free rate (% Unbound), binding rate (% Bound), and recovery rate (% Recovery) of the compound are calculated as follows: […]

JAK1-JH2 domain = molecular target: T7, JAK1-JH2 domain (Homo sapiens, UniProt P23458); test: Binding activity test for JH2 domain of JAK1 (Tb-antibody/tracer FRET)
T7 construct: IC50 on JH2 domain activity (nM)
In short: as §7

pSTAT1 = test: Phosphorylation inhibition of STAT in human whole blood, IFN-alpha stimulated (flow cytometry); format: cell-based; conditions: 20 min; human whole blood, IFN-alpha 20 mins, CD3 cells; read-out: IC50 on pSTAT1 inhibition in h WB
Description: Phosphorylation Inhibition of STAT in Human PBMC and Human Whole Blood Testing:
The inhibitory potential of test articles in human PBMC and human whole blood assay was evaluated by the method of flow cytometry.
IFN-alpha will activate JAK1 and TYK2 kinase in T cells by binding to IFN receptors, and then lead to phosphorylation of STAT1 and STAT2. The phosphorylated STAT1 enter nuclear and promote transcription and expression of IFN-gamma. To evaluate the efficacy of TYK2i in T cells, freshly prepared human PBMC or freshly collected human whole blood will be stimulated with certain unit of human IFN-alpha (Universal Type I IFN(1MU), R&D, 11200-2) for 20 mins in incubator. After stimulation, fix cells with Phosflow™ Fix Buffer I (BD, 557870), and then collect fixed cells by centrifugation (500 g, 8 min). Wash cells once with pre-cooled PBS, and then permeabilize cells with cold Perm Buffer III buffer (BD, 558050) for 45 mins on ice. Collect cells by centrifugation (600 g, 8 min) and washed twice with cold PBS. Stain cells with anti-human CD3 (FITC Mouse Anti-Human CD3, BD, 555332) and anti-pSTAT1_Y701(Alexa Fluor 647 Mouse Anti-Stat1 (pY701), BD, 612597) antibodies. Detect pSTAT1 by flow cytometry (CytoFlex S) and analyze data with FlowJo and GraphPad Prism 8 software. IC50 values of test articles were determined using 4-parameter logistic equation.

[5] = dog liver microsomes, read-out: Dog LM Clint
[6] = dog liver microsomes, read-out: Dog LM T½
[7] = human liver microsomes, read-out: Human LM Clint
[8] = human liver microsomes, read-out: Human LM T½
[9] = rat liver microsomes, read-out: Rat LM Clint
[10] = rat liver microsomes, read-out: Rat LM T½

T5 sequence (P29597 589-875 limits assumed): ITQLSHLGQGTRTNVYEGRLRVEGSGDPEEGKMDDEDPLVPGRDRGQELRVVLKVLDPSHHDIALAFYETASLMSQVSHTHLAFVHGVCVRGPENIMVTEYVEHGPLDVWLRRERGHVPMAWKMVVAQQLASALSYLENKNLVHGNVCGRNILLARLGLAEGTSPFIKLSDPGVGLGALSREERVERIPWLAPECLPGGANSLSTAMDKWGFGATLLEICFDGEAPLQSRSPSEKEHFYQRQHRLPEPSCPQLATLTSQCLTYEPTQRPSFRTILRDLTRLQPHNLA
T4 sequence (O60674 whole entry): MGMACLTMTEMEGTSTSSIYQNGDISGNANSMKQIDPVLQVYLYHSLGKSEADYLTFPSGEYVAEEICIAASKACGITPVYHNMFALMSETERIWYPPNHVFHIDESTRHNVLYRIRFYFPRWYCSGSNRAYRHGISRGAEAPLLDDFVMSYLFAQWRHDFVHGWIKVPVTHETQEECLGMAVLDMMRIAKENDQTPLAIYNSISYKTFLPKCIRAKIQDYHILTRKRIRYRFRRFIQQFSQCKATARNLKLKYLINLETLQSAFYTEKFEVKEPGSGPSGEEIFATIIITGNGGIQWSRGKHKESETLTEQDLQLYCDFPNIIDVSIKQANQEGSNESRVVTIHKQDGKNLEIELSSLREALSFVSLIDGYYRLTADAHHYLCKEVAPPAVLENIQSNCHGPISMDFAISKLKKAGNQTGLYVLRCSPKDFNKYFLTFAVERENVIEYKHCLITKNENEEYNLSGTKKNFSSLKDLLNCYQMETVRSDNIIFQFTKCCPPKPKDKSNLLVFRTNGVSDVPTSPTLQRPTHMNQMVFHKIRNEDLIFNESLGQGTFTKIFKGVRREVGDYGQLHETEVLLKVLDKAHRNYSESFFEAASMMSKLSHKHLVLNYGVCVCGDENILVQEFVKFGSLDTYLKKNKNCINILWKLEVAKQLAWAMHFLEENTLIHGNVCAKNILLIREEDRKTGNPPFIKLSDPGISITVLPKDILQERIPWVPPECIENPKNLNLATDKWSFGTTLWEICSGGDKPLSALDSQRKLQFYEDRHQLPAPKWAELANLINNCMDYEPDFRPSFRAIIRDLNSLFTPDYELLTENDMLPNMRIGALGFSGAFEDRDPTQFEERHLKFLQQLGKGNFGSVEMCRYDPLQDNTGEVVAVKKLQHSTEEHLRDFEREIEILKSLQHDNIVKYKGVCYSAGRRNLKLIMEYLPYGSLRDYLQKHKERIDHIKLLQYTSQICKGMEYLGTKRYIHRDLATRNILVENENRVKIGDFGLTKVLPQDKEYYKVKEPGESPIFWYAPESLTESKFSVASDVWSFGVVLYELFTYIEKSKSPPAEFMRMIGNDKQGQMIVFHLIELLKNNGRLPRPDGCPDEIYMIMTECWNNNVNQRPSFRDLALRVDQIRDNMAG
T2 sequence (P29597 whole entry P760L): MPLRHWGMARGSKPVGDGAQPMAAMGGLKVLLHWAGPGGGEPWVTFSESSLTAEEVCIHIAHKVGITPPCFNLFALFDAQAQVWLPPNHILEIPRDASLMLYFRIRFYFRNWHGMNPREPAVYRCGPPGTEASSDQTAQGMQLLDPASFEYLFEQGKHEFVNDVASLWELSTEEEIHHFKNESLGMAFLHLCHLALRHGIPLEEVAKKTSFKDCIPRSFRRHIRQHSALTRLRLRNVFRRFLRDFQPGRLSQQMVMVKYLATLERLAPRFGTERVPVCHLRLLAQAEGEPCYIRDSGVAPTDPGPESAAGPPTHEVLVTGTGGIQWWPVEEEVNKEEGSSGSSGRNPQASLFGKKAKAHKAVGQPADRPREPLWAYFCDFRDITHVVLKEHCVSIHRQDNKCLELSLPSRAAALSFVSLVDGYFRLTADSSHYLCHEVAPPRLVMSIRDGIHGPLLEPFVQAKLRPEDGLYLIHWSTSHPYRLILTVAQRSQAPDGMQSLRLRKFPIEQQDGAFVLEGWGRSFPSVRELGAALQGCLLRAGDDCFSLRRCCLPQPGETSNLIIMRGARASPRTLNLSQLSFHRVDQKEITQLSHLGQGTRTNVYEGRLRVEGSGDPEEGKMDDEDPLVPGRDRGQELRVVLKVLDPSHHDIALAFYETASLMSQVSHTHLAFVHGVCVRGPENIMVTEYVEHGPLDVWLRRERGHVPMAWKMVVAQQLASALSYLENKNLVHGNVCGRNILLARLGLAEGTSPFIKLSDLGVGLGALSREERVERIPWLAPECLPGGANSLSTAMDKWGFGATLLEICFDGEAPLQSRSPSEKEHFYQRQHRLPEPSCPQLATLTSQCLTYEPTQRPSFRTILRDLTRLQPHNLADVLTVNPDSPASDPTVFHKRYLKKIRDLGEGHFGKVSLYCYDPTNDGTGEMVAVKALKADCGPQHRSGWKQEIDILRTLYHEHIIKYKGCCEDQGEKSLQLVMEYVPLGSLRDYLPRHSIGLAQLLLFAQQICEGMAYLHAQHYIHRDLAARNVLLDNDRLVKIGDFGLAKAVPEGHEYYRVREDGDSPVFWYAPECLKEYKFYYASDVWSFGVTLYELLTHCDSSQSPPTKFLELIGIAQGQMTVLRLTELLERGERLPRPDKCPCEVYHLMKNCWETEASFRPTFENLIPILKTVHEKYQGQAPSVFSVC
T3 sequence (P23458 whole entry): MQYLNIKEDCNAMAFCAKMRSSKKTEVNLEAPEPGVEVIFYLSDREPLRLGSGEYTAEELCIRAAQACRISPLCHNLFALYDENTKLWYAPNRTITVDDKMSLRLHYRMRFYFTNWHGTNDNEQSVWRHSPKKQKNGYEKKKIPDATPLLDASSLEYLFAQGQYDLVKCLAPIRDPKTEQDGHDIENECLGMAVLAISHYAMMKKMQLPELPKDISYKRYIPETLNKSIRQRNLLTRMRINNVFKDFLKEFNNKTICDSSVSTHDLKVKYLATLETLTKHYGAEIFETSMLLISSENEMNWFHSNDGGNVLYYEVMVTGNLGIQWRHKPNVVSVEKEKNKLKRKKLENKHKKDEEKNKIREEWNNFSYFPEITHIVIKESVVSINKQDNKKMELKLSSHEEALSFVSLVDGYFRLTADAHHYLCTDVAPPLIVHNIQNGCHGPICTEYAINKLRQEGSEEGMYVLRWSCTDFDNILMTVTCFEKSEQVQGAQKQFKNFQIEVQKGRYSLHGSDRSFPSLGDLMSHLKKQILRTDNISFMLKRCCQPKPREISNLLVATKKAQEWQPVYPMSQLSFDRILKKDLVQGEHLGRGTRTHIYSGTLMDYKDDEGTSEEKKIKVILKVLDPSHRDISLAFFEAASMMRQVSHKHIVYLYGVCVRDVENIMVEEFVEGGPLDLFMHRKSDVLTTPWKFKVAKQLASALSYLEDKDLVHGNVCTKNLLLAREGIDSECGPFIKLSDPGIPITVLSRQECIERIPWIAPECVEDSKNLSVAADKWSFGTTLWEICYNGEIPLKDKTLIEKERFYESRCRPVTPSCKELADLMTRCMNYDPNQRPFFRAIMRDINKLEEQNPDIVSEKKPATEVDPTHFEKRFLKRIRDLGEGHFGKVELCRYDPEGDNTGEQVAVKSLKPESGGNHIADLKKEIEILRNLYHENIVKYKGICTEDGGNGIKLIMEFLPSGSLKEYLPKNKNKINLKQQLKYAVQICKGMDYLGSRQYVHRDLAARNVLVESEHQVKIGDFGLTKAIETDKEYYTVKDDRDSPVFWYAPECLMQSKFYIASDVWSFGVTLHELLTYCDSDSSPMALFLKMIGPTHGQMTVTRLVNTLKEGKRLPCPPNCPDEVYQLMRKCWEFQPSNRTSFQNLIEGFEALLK
T1 sequence (P29597 whole entry): as the sequence (P29597 whole entry P760L) above, with L760P counted along it
T7 sequence (P23458 583-855 limits assumed): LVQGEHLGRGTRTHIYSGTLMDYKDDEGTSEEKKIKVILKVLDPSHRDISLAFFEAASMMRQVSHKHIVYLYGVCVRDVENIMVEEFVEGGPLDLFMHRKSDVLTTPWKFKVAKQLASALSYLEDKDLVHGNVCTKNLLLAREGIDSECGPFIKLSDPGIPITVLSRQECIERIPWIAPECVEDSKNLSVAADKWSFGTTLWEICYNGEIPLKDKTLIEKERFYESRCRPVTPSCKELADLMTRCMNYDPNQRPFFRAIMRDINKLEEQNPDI
T6 sequence (P29597 whole entry, change not shown, the tested form may be a part): as the sequence (P29597 whole entry P760L) above, with L760P counted along it

Row | Structure (SMILES) | IC50 (TYK2) [µM] | GI50 [1] [µM] | microsomal CLint at 1 μM [2, 5] [µL/min/mg] | half-life at 1 μM [2, 6] [h] | microsomal CLint at 1 μM [2, 7] [µL/min/mg] | half-life at 1 μM [2, 8] [h] | microsomal CLint at 1 μM [2, 9] [µL/min/mg] | half-life at 1 μM [2, 10] [h] | IC50 (JAK1) [µM] | IC50 (JAK2) [µM] | other results
1 | [2H]C([2H])([2H])NC(=O)c1cnc(Nc2cccc(C#N)n2)nc1Nc1cccc(-c2ncn(C)n2)c1OC [Example 21, 2-[(6-Cyano-2-pyridyl)amino]-4-[2-methoxy-3-(1-methyl-1,2,4-triazol-3-yl)anilino]-N-(trideuteriomethyl)pyrimidine-5-carboxamide] | > 5 | 0.0775 | 26.8 | 0.861 | 6.42 | 3.6 | 7.4 | 3.12 | – | – | –
2 | CNC(=O)c1cnc2nc1Nc1cc(cc(-c3ncn(C)n3)c1OC)CN(C)Cc1cccc(c1)N2 [Example 22, 10-Methoxy-N,15-dimethyl-11-(1-methyl-1,2,4-triazol-3-yl)-2,4,8,15,23-pentazatetracyclo[15.3.1.13,7.19,13]tricosa-1(21),3(23),4,6,9,11,13(22),17,19-nonaene-6-carboxamide] | > 5 | 0.861 | – | – | – | – | – | – | > 5 | > 5 | –
3 | CCn1ccc2c(c(Nc3cc(NC(=O)C4CC4)nnc3C(=O)NC)cn2C)c1=O [Example 23, 6-(Cyclopropanecarboxamido)-4-((5-ethyl-1-methyl-4-oxo-4,5-dihydro-1H-pyrrolo[3,2-c]pyridin-3-yl)amino)-N-methylpyridazine-3-carboxamide] | – | 0.0629 | 21.4 | 1.08 | 80 | 0.288 | 35.8 | 0.645 | – | – | IC50 (TYK2-JH2 domain): 0.00133 µM; GI50 (Ba/F3-TEL-TYK2 cells): > 20 µM

Further lines, with some results ahead:

Row | IC50 (TYK2) [µM] | GI50 [1] [µM] | microsomal CLint at 1 μM [2, 5] [µL/min/mg] | half-life at 1 μM [2, 6] [h] | microsomal CLint at 1 μM [2, 7] [µL/min/mg] | half-life at 1 μM [2, 8] [h] | microsomal CLint at 1 μM [2, 9] [µL/min/mg] | half-life at 1 μM [2, 10] [h] | IC50 (JAK1) [µM] | IC50 (JAK2) [µM] | Structure (SMILES) | other results
4 | > 5 | 1.39 | – | – | – | – | – | – | – | – | CNC(=O)c1nnc(NC(=O)C2CC2)cc1Nc1cccc2ccn(C)c(=O)c12 [Example 24, 6-(Cyclopropanecarboxamido)-N-methyl-4-((2-methyl-1-oxo-1,2-dihydroisoquinolin-8-yl)amino)pyridazine-3-carboxamide] | –
5 | > 5 | 0.499 | 14.5 | 3.97 | 26.2 | 2.2 | 21.8 | 2.65 | > 5 | > 5 | CNC(=O)c1cnc2nc1Nc1cc(cc(-c3ncn(C)n3)c1OC)COCc1cccc(c1)N2 [Example 33, 10-Methoxy-N-methyl-11-(1-methyl-1,2,4-triazol-3-yl)-15-oxa-2,4,8,23-tetrazatetracyclo[15.3.1.13,7.19,13]tricosa-1(21),3(23),4,6,9,11,13(22),17,19-nonaene-6-carboxamide] | –
6 | > 5 | 0.0881 | – | – | – | – | – | – | > 5 | > 5 | CCN1CCc2scc(Nc3cc(NC(=O)C4CC4)ncc3C(=O)NC)c2C1=O [Example 39, 6-(Cyclopropanecarboxamido)-4-((5-ethyl-4-oxo-4,5,6,7-tetrahydrothieno [3,2-c]pyridin-3-yl)amino)-N-methyl-nicotinamide] | –
7 | – | 0.0614 | – | – | – | – | – | – | – | – | [2H]C([2H])([2H])NC(=O)c1cnc(NC(=O)C2CC2)cc1Nc1ccc2cnn(C([2H])([2H])C([2H])([2H])[2H])c2c1OC([2H])([2H])[2H] [Example 134, 6-(Cyclopropanecarboxamido)-4-((1-(ethyl-d5)-7-(methoxy-d3)-1H-indazol-6-yl)amino)-N-(methyl-d3)nicotinamide] | CLint scaled at 1 μM ([3]; read-out: Human hepatocyte Clint(liver)): 18 mL/min/kg; half-life at 1 μM ([3]; read-out: Human hepatocyte stability T1/2): 1.64 h; fraction unbound at 5 h [4]: 0.049
8 | – | 0.0293 | – | – | – | – | – | – | – | – | CCn1ncc2ccc(Nc3cc(NC(=O)C4CC4)ncc3C(=O)NC)c(OC)c21 [Example 228, 6-(Cyclopropanecarboxamido)-4-((1-ethyl-7-methoxy-1H-indazol-6-yl)amino)-N-methylnicotinamide] | IC50 (TYK2-JH2 domain): 0.000288 µM; JAK1/TYK2 selectivity (TYK2-JH2 domain; ratio JAK1-JH2 IC50 / TYK2-JH2 IC50): 22.5; IC50 (JAK1-JH2 domain): 0.00648 µM; IC50 (pSTAT1): 0.245 µM; fraction unbound at 5 h [4]: 0.04
